According to patent US20220056043A1, “NITROGEN-CONTAINING FUSED CYCLIC COMPOUND, PREPARATION METHOD THEREFOR AND USE THEREOF” (SICHUAN KELUN-BIOTECH BIOPHARMACEUTICAL CO., LTD., priority 2019, published 2022):

Experiments:
hERG potassium channel [1] = target: T1, hERG potassium channel (Homo sapiens, UniProt Q12809); assay: cell-based
CYP2D6 = target: T2, CYP2D6 (Homo sapiens, UniProt P10635); assay: CYP enzyme inhibition test, Vivid CYP2D6 Cyan Screening Kit; type: in vitro ADME; conditions: for inhibitory effect on CYP2D6: conclusion in words
T2 construct: purchased
T2 sequence (P10635 whole entry): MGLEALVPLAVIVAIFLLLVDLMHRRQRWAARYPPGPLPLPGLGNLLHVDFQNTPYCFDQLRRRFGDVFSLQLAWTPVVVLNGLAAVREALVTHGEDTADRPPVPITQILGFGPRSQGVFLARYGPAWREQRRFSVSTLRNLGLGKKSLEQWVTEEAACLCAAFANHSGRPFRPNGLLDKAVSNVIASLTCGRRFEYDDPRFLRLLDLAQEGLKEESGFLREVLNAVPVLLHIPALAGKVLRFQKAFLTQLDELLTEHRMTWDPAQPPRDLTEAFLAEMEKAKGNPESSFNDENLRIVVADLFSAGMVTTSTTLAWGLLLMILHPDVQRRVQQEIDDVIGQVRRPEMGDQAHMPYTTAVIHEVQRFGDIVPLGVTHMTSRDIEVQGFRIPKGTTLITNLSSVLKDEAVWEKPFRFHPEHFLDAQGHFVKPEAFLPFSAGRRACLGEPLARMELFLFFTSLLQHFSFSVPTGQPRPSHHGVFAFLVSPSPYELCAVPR
Protocol: (§1) Experimental Example 6: CYP Enzyme Inhibition Test CYP450 is the most important enzyme system in drug metabolism. The enzymes involved in metabolism interact with drugs, and the most important ones are CYP1A2, CYP2D6 and CYP3A4. P450-Glo™ CYP1A2 Screening System, Vivid® CYP2D6 Cyan Screening Kit and Vivid® CYP3A4 Red Screening Kit were used in this test, and the inhibitory effects of the compounds on CYP1A2, CYP2D6 and CYP3A4 were determined according to the instructions of the kit.

CYP1A2 = target: T3, CYP1A2 (Homo sapiens, UniProt P05177); assay: CYP enzyme inhibition test, P450-Glo CYP1A2 Screening System; type: in vitro ADME; conditions: for inhibitory effect on CYP1A2: conclusion in words
T3 construct: purchased
T3 sequence (P05177 1-516): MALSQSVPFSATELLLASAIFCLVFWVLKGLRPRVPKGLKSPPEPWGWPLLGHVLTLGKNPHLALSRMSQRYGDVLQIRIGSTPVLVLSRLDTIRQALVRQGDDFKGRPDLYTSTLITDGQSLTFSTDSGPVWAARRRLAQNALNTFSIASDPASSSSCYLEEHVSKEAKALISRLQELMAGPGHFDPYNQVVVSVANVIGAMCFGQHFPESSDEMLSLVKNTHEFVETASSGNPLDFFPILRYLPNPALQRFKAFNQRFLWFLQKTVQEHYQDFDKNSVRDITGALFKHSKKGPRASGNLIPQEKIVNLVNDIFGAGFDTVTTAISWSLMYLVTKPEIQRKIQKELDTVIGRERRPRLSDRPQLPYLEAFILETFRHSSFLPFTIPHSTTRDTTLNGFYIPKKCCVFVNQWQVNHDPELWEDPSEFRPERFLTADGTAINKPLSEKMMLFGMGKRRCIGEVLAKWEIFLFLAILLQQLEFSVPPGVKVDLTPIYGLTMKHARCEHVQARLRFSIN
Protocol: as §1

CYP3A4 = target: T4, CYP3A4 (Homo sapiens, UniProt P08684); assay: CYP enzyme inhibition test, Vivid CYP3A4 Red Screening Kit; type: in vitro ADME; conditions: for inhibitory effect on CYP3A4: conclusion in words
T4 construct: purchased
T4 sequence (P08684 whole entry): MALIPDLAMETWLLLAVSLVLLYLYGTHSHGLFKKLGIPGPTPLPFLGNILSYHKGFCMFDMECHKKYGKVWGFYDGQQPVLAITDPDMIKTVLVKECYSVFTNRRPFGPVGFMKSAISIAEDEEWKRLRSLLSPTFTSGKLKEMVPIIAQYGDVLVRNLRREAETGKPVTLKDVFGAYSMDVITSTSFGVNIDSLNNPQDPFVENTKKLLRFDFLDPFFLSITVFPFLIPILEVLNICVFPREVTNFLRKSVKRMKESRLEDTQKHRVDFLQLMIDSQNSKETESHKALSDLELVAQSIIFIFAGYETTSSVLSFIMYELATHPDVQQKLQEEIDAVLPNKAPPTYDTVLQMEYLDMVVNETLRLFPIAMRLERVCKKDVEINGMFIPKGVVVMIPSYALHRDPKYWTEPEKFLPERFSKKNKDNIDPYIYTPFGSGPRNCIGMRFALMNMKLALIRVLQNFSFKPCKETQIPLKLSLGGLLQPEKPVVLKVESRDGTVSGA
Protocol: as §1

hERG potassium channel [2] = target: T1, hERG potassium channel; assay: hERG test, Predictor hERG Fluorescence Polarization Assay Kit; type: binding; set-up: expressed in transfected cells; host or cells: HEK-293; conditions: test concentrations 1 μM and 10 μM
From the text: Experimental Example 5: hERG Test
1. Predictor™ hERG Fluorescence Polarization Assay Kit (ThermoFisher) was used to test the inhibitory effect of the compounds on hERG potassium channel according to the instructions of the kit.

T1 sequence (Q12809 whole entry): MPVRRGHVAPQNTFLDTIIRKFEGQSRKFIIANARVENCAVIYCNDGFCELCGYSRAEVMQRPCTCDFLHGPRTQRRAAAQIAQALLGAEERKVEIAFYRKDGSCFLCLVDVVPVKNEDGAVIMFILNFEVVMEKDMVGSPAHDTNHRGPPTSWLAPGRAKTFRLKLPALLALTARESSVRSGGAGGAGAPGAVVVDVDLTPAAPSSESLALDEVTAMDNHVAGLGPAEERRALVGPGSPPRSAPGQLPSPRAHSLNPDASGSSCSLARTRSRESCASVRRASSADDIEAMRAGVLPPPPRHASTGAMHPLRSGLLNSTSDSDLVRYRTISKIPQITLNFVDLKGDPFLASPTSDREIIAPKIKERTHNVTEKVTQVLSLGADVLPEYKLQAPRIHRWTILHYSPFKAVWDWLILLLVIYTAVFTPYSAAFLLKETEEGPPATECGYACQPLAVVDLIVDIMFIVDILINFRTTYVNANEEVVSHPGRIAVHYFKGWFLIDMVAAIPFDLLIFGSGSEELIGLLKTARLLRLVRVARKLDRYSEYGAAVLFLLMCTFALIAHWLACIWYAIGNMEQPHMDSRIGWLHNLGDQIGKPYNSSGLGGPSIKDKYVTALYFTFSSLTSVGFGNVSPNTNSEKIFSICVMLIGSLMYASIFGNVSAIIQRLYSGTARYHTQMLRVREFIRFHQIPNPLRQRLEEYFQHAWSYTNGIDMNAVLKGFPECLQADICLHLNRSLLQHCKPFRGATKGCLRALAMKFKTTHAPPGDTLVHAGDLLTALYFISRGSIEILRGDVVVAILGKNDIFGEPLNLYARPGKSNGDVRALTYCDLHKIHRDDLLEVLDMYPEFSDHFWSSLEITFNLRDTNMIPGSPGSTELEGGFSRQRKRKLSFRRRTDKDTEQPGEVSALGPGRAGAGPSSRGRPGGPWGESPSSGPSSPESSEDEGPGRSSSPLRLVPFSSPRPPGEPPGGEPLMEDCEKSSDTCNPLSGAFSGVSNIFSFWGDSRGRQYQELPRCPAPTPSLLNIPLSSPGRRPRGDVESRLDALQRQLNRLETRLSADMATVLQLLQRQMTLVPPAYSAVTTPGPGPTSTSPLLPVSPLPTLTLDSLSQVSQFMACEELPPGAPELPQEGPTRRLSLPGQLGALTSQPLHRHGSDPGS

IC50 (CYP2D6)	inhibitory effect on CYP2D6 (CYP2D6)	IC50 (CYP1A2)	inhibitory effect on CYP1A2 (CYP1A2)	IC50 (CYP3A4)	inhibitory effect on CYP3A4 (CYP3A4)	Compound	IC50 (hERG potassium channel [1])	IC50 (hERG potassium channel [2])
–	–	–	–	–	–	Nc1cc(NCC(F)F)c2sc(-c3ccn[nH]3)cc2n1 [Compound 116, N^7-(2,2-difluoroethyl)-2-(1H-pyrazol-5-yl)thieno[3,2-b]pyridine-5,7-diamine]	> 10 µM	–
–	–	–	–	–	–	COCCNc1cc(N)nc2cc(-c3ccn[nH]3)sc12 [Compound 100, N^7-(2-methoxyethyl)-2-(1H-pyrazol-5-yl)thieno[3,2-b]pyridine-5,7-diamine]	> 10 µM	–
> 10 µM	no apparent inhibitory effects	> 10 µM	no apparent inhibitory effects	> 10 µM	no apparent inhibitory effects	Nc1cc(N[C@@H]2CC[C@H](O)C2)c2sc(-c3ccn[nH]3)cc2n1 [Compound 31, (1S,3R)-3-((5-amino-2-(1H-pyrazol-5-yl)thieno[3,2-b]pyridin-7-yl)amino)cyclopentanol]	–	–
> 10 µM	no apparent inhibitory effects	> 10 µM	no apparent inhibitory effects	> 10 µM	no apparent inhibitory effects	Nc1cc(NC2CCC(O)CC2)c2sc(-c3ccn[nH]3)cc2n1 (stereo not drawn) [Compound 114, 4-((5-amino-2-(1H-pyrazol-5-yl)thieno[3,2-b]pyridin-7-yl)amino)-1-cyclohexanol]	–	–
–	–	–	–	–	–	Nc1cc(NCC2CCOCC2)c2sc(-c3ccn[nH]3)cc2n1 [Compound 120, 2-(1H-pyrazol-5-yl)-N^7-((tetrahydro-2H-pyran-4-yl)methyl)thieno[3,2-b]pyridine-5,7-diamine]	> 10 µM	–
> 10 µM	no apparent inhibitory effects	> 10 µM	no apparent inhibitory effects	> 10 µM	no apparent inhibitory effects	CC(C)(CO)CNc1cc(N)nc2cc(-c3ccn[nH]3)sc12 [Compound 115, 3-((5-amino-2-(1H-pyrazol-5-yl)thieno[3,2-b]pyridin-7-yl)amino)-2,2-dimethyl-1-propanol]	> 10 µM	–
> 10 µM	no apparent inhibitory effects	> 10 µM	no apparent inhibitory effects	> 10 µM	no apparent inhibitory effects	COC(C)(C)CNc1cc(N)nc2cc(-c3ccn[nH]3)sc12 [Compound 111, N^7-(2′-methoxy-2′-methylpropyl)-2-(1H-pyrazol-5-yl)thieno[3,2-b]pyridine-5,7-diamine]	–	> 10 µM
> 10 µM	no apparent inhibitory effects	> 10 µM	no apparent inhibitory effects	> 10 µM	no apparent inhibitory effects	Nc1cc(NC2COC2)c2sc(-c3ccn[nH]3)cc2n1 [Compound 112, N^7-(oxetan-3-yl)-2-(1H-pyrazol-5-yl)thieno[3,2-b]pyridine-5,7-diamine]	–	> 10 µM
